Measured values from ChEMBL document CHEMBL4834430, “Design and Structure-Activity Relationships of Isothiocyanates as Potent and Selective N-Acylethanolamine-Hydrolyzing Acid Amidase Inhibitors” (J Med Chem, 2021).
pIC50: −log10 of the molar value. Activity calls are given as the source filed them. The calls are words filed in the database; no cut-off is given here.

Assays:
[1] = Drug concentration in brain of CD-1 mouse at 2 mg/kg, iv administered as single cassette dose measured after 15 mins; format: ADME, organism-based; settings: read-out: Ct
[2] = target: T1, Cathepsin K (Homo sapiens, UniProt P43235); assay: Inhibition of recombinant human Cathepsin K using Z-Phe-Arg-AMC as fluorogenic substrate preincubated for 120 mins followed by substrate addition by fluorescence assay
T1 sequence (P43235 whole entry): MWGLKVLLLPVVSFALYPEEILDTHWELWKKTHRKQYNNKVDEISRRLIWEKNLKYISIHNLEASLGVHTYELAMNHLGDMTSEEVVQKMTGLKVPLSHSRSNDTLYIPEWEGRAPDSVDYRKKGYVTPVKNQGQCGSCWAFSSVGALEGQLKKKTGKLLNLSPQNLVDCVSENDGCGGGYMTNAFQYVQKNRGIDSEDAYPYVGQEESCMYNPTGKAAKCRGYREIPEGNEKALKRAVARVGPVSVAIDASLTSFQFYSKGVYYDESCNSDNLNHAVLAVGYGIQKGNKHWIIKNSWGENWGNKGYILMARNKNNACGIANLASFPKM

[3] = Drug concentration in plasma of CD-1 mouse at 2 mg/kg, iv administered as single cassette dose measured after 15 mins; format: ADME, organism-based
[4] = Drug concentration in plasma of CD-1 mouse at 8 mg/kg, po administered as single cassette dose measured after 30 mins; format: ADME, organism-based
[5] = AUC in CD-1 mouse plasma at 2 mg/kg, iv measured up to 8 hrs; format: ADME, organism-based; parameters: route intravenous, dose 2 mg/kg, time <=8
[6] = Clearance in CD-1 mouse plasma at 2 mg/kg, iv measured up to 8 hrs; format: ADME, organism-based
[7] = MRT in CD-1 mouse plasma at 2 mg/kg, iv measured up to 8 hrs; format: ADME, organism-based
[8] = AUC in CD-1 mouse plasma at 8 mg/kg, po measured up to 8 hrs; format: ADME, organism-based; parameters: route oral, dose 8 mg/kg, time <=8
[9] = Clearance in CD-1 mouse plasma at 8 mg/kg, po measured up to 8 hrs; format: ADME, organism-based
[10] = MRT in CD-1 mouse plasma at 8 mg/kg, po measured up to 8 hrs; format: ADME, organism-based
[11] = Half life in CD-1 mouse plasma at 8 mg/kg, po measured up to 8 hrs; format: ADME, organism-based
[12] = AUC in CD-1 mouse brain at 2 mg/kg, iv measured up to 6 hrs; format: ADME, organism-based; parameters: route intravenous, dose 2 mg/kg, time <=6
[13] = AUC in CD-1 mouse brain at 8 mg/kg, po measured up to 6 hrs; format: ADME, organism-based; parameters: route oral, dose 8 mg/kg, time <=6
[14] = Ratio of drug concentration in brain to plasma in CD-1 mouse at 2 mg/kg, iv; format: ADME, organism-based; settings: read-out: BPR
[15] = target: Cannabinoid receptor 2 (Homo sapiens) (UniProt P34972); assay: Displacement of [3H]-CP55940 from human CB2 receptor expressed in HEK293 cell membrane at 10 uM; format: cell membranes
Cannabinoid receptor 2 (Homo sapiens), sequence (P34972 whole entry): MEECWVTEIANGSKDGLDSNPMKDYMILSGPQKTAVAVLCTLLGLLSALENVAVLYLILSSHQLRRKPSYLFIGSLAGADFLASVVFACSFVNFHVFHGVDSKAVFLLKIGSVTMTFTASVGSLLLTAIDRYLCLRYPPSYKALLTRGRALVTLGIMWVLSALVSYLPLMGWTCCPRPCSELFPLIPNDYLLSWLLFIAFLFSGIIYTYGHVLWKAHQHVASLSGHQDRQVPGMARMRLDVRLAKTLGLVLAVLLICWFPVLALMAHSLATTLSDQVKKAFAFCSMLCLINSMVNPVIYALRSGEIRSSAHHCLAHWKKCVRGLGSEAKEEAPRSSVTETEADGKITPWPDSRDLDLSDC

[16] = target: Cannabinoid receptor 2 (Mus musculus) (UniProt P47936); assay: Displacement of [3H]-CP55940 from mouse CB2 receptor expressed in HEK293 cell membrane at 10 uM; format: cell membranes
Cannabinoid receptor 2 (Mus musculus), sequence (P47936 whole entry): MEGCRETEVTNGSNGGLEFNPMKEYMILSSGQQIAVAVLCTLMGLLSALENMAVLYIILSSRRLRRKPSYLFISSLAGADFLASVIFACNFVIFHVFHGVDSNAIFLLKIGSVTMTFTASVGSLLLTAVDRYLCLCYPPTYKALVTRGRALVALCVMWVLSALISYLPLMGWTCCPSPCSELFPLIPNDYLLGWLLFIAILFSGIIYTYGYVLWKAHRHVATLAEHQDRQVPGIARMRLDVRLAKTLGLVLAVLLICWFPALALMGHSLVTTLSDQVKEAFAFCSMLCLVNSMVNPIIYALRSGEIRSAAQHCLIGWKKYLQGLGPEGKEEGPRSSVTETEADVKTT

[17] = target: Sodium-dependent noradrenaline transporter (Homo sapiens) (UniProt P23975); assay: Inhibition of NET (unknown origin) at 10 uM
Sodium-dependent noradrenaline transporter (Homo sapiens), sequence (P23975 whole entry): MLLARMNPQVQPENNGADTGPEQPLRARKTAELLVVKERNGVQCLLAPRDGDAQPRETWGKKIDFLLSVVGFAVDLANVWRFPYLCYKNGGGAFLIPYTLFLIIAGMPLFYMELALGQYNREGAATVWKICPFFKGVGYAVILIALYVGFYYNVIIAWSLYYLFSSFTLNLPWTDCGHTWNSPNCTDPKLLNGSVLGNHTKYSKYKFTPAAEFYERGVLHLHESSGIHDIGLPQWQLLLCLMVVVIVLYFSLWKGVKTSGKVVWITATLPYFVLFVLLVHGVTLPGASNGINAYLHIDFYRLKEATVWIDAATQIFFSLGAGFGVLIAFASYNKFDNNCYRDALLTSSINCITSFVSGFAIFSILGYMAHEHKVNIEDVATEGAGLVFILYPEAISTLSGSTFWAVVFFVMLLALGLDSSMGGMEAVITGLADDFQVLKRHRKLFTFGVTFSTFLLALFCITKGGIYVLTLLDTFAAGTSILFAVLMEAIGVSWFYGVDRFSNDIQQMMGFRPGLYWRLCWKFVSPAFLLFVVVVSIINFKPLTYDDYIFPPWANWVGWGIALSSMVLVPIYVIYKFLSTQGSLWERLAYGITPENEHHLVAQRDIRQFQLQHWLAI

[18] = target: Cytochrome P450 2D6 (Homo sapiens, UniProt P10635); assay: Inhibition of CYP2D6 (unknown origin) at 10 uM; format: ADME
Cytochrome P450 2D6, sequence (P10635 whole entry): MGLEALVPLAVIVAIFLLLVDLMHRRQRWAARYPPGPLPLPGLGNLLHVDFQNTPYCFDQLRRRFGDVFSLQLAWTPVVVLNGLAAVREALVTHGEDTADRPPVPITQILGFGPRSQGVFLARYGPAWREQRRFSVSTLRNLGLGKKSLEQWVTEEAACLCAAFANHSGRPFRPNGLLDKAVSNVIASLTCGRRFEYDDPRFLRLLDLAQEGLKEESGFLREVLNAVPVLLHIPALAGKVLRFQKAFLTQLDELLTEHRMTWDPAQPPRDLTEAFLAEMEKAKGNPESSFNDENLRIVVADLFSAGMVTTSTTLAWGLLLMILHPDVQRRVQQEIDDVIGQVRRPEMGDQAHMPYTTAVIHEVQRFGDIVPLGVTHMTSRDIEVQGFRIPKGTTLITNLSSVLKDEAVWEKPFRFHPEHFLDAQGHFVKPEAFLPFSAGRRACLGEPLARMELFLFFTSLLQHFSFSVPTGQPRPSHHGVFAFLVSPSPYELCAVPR

[19] = target: T2, Cytochrome P450 2A6 (Homo sapiens, UniProt P11509); assay: Inhibition of CYP2A6 (unknown origin) at 10 uM; format: ADME
T2 sequence (P11509 whole entry): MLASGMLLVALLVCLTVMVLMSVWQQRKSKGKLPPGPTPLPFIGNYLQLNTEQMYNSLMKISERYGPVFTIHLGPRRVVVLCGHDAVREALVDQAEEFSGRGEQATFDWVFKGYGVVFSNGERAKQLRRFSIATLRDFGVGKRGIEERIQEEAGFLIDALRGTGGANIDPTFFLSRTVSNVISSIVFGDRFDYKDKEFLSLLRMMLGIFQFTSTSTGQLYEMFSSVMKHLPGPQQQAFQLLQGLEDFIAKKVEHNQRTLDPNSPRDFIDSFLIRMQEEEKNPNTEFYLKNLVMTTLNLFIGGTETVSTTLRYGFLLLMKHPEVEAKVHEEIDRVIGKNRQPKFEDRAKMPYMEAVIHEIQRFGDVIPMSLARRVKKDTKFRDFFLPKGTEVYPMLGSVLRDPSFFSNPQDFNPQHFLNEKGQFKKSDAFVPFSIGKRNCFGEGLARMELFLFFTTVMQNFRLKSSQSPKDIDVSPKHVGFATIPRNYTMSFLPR

[20] = target: T3, Cytochrome P450 1A2 (Homo sapiens, UniProt P05177); assay: Inhibition of CYP1A2 (unknown origin); format: ADME
T3 sequence (P05177 whole entry): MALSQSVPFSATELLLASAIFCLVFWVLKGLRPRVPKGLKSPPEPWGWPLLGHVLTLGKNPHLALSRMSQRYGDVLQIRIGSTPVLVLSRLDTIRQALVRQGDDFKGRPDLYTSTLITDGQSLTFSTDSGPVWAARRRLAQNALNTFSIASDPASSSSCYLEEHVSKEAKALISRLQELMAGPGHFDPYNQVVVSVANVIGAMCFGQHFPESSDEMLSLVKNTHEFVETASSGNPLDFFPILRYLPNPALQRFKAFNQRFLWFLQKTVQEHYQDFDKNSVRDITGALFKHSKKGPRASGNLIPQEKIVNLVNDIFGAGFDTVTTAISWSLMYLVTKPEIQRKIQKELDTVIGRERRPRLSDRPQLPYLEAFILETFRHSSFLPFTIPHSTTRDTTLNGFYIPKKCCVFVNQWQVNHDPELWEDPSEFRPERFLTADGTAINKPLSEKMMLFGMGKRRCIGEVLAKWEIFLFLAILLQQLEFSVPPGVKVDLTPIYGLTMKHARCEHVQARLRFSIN

[21] = target: Cytochrome P450 3A4 (Homo sapiens, UniProt P08684); assay: Inhibition of CYP3A4 (unknown origin); format: ADME
Cytochrome P450 3A4, sequence (P08684 whole entry): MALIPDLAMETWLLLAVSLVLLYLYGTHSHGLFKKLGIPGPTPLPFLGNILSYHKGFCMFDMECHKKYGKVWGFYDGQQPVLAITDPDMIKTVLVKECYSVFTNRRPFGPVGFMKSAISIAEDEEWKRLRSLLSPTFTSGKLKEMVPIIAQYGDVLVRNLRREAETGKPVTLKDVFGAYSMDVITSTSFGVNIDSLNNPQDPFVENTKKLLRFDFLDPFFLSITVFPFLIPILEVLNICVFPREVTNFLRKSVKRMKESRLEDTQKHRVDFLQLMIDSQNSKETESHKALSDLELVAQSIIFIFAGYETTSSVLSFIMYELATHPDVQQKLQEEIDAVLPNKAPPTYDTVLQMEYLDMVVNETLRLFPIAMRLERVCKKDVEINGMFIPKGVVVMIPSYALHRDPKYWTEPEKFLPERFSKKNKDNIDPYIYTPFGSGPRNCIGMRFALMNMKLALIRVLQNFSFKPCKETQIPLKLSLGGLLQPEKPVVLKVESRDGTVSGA

[22] = target: Voltage-gated inwardly rectifying potassium channel KCNH2 (Homo sapiens, UniProt Q12809); assay: Inhibition of human ERG
Voltage-gated inwardly rectifying potassium channel KCNH2, sequence (Q12809 whole entry): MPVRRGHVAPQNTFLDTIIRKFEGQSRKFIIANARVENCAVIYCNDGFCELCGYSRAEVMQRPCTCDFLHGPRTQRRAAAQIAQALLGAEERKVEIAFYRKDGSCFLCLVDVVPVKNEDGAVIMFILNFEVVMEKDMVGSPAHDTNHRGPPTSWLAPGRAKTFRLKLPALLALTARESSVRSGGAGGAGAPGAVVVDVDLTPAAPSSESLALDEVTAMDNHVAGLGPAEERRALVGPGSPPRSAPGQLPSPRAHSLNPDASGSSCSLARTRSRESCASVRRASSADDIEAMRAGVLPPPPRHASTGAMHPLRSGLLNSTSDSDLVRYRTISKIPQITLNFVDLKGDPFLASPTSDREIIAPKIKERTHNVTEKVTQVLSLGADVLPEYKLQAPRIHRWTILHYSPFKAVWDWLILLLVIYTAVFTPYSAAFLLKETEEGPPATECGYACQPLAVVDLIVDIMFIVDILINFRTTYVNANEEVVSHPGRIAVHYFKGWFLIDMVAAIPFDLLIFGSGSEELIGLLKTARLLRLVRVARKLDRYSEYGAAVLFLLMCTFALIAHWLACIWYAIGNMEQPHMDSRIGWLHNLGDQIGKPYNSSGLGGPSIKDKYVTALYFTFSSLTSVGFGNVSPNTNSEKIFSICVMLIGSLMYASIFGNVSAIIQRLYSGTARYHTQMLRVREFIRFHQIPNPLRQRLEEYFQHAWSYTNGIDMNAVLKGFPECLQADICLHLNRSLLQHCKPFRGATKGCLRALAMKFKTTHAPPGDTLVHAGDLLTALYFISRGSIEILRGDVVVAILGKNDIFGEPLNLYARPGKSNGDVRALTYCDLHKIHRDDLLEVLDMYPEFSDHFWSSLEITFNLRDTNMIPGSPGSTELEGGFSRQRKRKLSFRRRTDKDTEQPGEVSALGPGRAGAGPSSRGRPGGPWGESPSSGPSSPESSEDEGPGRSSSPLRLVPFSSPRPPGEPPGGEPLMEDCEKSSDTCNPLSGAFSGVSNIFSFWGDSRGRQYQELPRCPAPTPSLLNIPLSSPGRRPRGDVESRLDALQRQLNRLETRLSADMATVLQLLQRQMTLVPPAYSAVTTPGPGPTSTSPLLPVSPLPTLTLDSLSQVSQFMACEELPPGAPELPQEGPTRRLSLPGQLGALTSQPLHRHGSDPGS

[23] = Mutagenecity in Salmonella typhimurium TA98 in presence of S9 fraction at 5 to 100 uM by Ames test; format: toxicity, subcellular; settings: salmonella enterica subsp. enterica serovar typhimurium, s9, 100 µM; dose 5-100 µM
[24] = Mutagenecity in Salmonella typhimurium TA98 in absence of S9 fraction at 5 to 100 uM by Ames test; format: toxicity; settings: salmonella enterica subsp. enterica serovar typhimurium, s9, 100 µM; dose 5-100 µM
[25] = Mutagenecity in Salmonella typhimurium TA1535 in presence of S9 fraction at 5 to 100 uM by Ames test; format: toxicity, subcellular; settings: salmonella enterica subsp. enterica serovar typhimurium, s9, 100 µM; dose 5-100 µM
[26] = Mutagenecity in Salmonella typhimurium TA1537 in presence of S9 fraction at 5 to 100 uM by Ames test; format: toxicity, subcellular; settings: salmonella enterica subsp. enterica serovar typhimurium, s9, 100 µM; dose 5-100 µM
[27] = Mutagenecity in Salmonella typhimurium TA1537 in absence of S9 fraction at 5 to 100 uM by Ames test; format: toxicity; settings: salmonella enterica subsp. enterica serovar typhimurium, s9, 100 µM; dose 5-100 µM
[28] = Ratio of drug concentration in brain to plasma in CD-1 mouse at 8 mg/kg, po; format: ADME, organism-based; settings: read-out: BPR

COc1ccc(-c2ccc(CO[C@H]3C[C@@H](N=C=S)C3)nc2)cc1F
concentration at 0.25 h [1]: 873 ng/g
pIC50 [2]: 6.92
concentration at 0.25 h [3]: 0.189 µg/mL
concentration at 0.5 h [4]: 0.016 µg/mL
AUC at 8 h [5]: 0.0785 µg·h/mL
clearance [6]: 24.7 L/h/kg
MRT [7]: 20.3 min
AUC at 8 h [8]: 0.0413 µg·h/mL
CL/F [9]: 166 L/h/kg
MRT [10]: 64.2 min
half-life [11]: 31.5 min
AUC at 6 h [12]: 0.298 µg·h/mL
AUC at 6 h [13]: 0.0103 µg·h/mL
Kp [14]: 3.8
inhibition [15]: inactive
inhibition [16]: inactive
inhibition [17]: inactive
inhibition (INH) [18]: Not Active
inhibition (INH) [19]: Not Active
pIC50 [20]: 5.74
pIC50 [21]: 5.59
pIC50 [22]: 4.72
Activity [23]: Non-Toxic
Activity [24]: Non-Toxic
Activity [25]: Non-Toxic
Activity [26]: Non-Toxic
Activity [27]: Non-Toxic
Kp [28]: 0.25
